Drawing on patent US8580811B2 (Ligand Pharmaceuticals Incorporated, priority 2005, dated 2013), this text covers Ki for 22 compounds.

For one assay, the target named is T1, human AR (Homo sapiens, UniProt P10275).
T1 construct: expressed in transfected cells; host or cells: COS-1 cells
T1 sequence (P10275 1-920): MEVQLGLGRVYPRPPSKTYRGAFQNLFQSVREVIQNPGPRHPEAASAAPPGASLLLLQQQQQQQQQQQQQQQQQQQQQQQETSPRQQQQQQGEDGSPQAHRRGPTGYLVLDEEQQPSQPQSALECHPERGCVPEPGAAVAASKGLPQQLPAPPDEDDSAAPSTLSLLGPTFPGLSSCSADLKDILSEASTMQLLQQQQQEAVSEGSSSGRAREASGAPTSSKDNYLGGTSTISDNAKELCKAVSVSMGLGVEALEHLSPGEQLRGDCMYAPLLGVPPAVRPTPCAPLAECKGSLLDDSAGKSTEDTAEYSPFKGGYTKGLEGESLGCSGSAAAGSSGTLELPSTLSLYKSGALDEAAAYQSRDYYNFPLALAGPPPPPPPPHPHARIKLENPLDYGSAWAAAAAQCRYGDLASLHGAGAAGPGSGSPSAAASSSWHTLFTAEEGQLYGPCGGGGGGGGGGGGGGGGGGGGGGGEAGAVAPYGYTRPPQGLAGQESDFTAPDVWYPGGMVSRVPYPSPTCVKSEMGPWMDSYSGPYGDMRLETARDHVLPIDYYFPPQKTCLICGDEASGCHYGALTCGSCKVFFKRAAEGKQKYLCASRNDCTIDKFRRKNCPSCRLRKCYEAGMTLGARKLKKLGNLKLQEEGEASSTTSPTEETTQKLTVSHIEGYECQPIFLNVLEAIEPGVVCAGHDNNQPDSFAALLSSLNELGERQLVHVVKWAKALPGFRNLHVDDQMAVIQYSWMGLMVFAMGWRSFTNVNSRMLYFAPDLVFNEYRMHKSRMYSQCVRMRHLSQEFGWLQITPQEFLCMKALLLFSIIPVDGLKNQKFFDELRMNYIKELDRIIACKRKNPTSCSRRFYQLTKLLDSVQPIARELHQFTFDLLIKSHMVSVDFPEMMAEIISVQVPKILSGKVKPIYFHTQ
Kind of assay: IR Binding Assay: whole cell competitive binding of test compounds against 3H-DHT in COS-1 cells transfected with pRShAR.
Details: not given
The method, then:
For the whole cell binding assay, COS-1 cells in 96-well microtiter plates including DMEM-10% FBS were transfected as described above with the following plasmid DNA: pRShAR (2 ng/well), pRS-β-Gal (50 ng/well) and pGEM (48 ng/well). Six hours after transfection, media was removed, the cells were washed with PBS and fresh media was added. The next day, the media was changed to DMEM-serum free to remove any endogenous ligand that might be complexed with the receptor in the cells.
After 24 hours in serum-free media, either a saturation analysis to determine the Kd for tritiated dihydrotestosterone (^3H-DHT) on human AR or a competitive binding assay to evaluate the ability of test compounds to compete with ^3H-DHT for AR was performed. […] For the competitive binding assay, media including 1 nM ^3H-DHT and test compounds in concentrations ranging from 10^−10 to 10^−6 M were added to the cells. Three replicates were used for each sample. After three hours at 37° C., an aliquot of the total binding media at each concentration of ^3H-DHT was removed to estimate the amount of free ^3H-DHT. The remaining media was removed, the cells were washed three times with PBS to remove unbound ligand, and cells were lysed with a Triton X-100-based buffer. The lysates were assayed for amount of bound ^3H-DHT and β-Gal activity using a scintillation counter or spectrophotometer, respectively.
For the saturation analyses, the difference between the total binding and the nonspecific binding, normalized by the β-Gal rate, was defined as specific binding. The specific binding was evaluated by Scatchard analysis to determine the Kd for ^3H-DHT. See e.g., D. Rodbard, “Mathematics and statistics of ligand assays: an illustrated guide” In: J. Langon and J. J. Clapp, eds., Ligand Assay, Masson Publishing U.S.A., Inc., New York, pp. 45-99, (1981), the disclosure of which is herein incorporated by reference. For the competition studies, the data was plotted as the amount of ^3H-DHT (% of control in the absence of test compound) remaining over the range of the dose-response curve for a given compound. […] The Ki values were determined by application of the Cheng-Prusoff equation to the IC50 values, where:
[formula] After correcting for non-specific binding, IC50 values were determined. […] The IC50 value was determined graphically from a log-logit plot of the data. The Ki values were determined by application of the Cheng-Prusoff equation to the IC50 values, the labeled ligand concentration and the Kd of the labeled ligand. see e.g., Cheng, Y. C. and Prusoff, W. H. Biochem. Pharmacol. 22:3099 (1973).
Compound `CC1c2c(ccc3[nH]c(=O)cc(Cl)c23)N(CC(F)(F)F)C1c1ccc(F)cc1F` (racemic) [Compound 150, (±)-9-Chloro-2-(2,4-difluorophenyl)-1-methyl-3-(2,2,2-trifluoroethyl)-1,2,3,6-tetrahydropyrrolo-[3,2-f]quinolin-7-one] displayed an inhibition constant (Ki) above 10 nM. The same measure, in the same setting: as for `CC1c2c(cc(F)c3[nH]c(=O)cc(Cl)c23)N(CC(F)(F)F)C1C` (racemic) [Compound 151, (±)-9-Chloro-1,2-dimethyl-5-fluoro-3-(2,2,2-trifluoro-ethyl)-1,2,3,6-tetrahydro-pyrrolo[3,2-f]quinolin-7-one], the figure is below 5 nM; as for `CC1c2c(ccc3[nH]c(=O)cc(Cl)c23)N(CC(F)(F)F)C1c1ccc(Cl)cc1` (racemic) [Compound 152, (±)-9-Chloro-2-(4-chlorophenyl)-1-methyl-3-(2,2,2-trifluoroethyl)-1,2,3,6-tetrahydro-pyrrolo[3,2-f]quinolin-7-one], above 10 nM; as for `CC1c2c(ccc3[nH]c(=O)cc(Cl)c23)N(CC(F)(F)F)C1c1cccc(Br)c1` (racemic) [Compound 153, (±)-2-(3-Bromophenyl)-9-chloro-1-methyl-3-(2,2,2-trifluoroethyl)-1,2,3,6-tetrahydro-pyrrolo[3,2-f]quinolin-7-one], above 10 nM. In the case of `CC1c2c(ccc3[nH]c(=O)cc(Cl)c23)N(CC(F)(F)F)C1c1cccc([N+](=O)[O-])c1` (racemic) [Compound 154, (±)-9-Chloro-1-methyl-2-(3-nitrophenyl)-3-(2,2,2-trifluoroethyl)-1,2,3,6-tetrahydro-pyrrolo[3,2-f]quinolin-7-one], the inhibition constant (Ki) is above 10 nM. Same read-out and setting: the value for `CC1c2c(ccc3[nH]c(=O)cc(Cl)c23)N(CC(F)(F)F)C1c1ccc(O)cc1` (racemic) [Compound 155, (±)-9-Chloro-2-(4-hydroxyphenyl)-1-methyl-3-(2,2,2-trifluoroethyl)-1,2,3,6-tetrahydro-pyrrolo[3,2-f]quinolin-7-one] was above 10 nM; that for `CC1c2c(ccc3[nH]c(=O)cc(Cl)c23)N(CC(F)(F)F)C1c1ccccc1F` (racemic) [Compound 156, (±)-9-Chloro-2-(2-fluorophenyl)-1-methyl-3-(2,2,2-trifluoroethyl)-1,2,3,6-tetrahydro-pyrrolo[3,2-f]quinolin-7-one] was below 5 nM.

Turning to `CC1c2c(ccc3[nH]c(=O)cc(Cl)c23)N(CC(F)(F)F)C1c1ccc(Cl)c(Cl)c1` (racemic) [Compound 157, (±)-9-Chloro-2-(3,4-dichlorophenyl)-1-methyl-3-(2,2,2-trifluoroethyl)-1,2,3,6-tetrahydropyrrolo[3,2-f]quinolin-7-one], the Ki was below 5 nM. Consider `CC1c2c(ccc3[nH]c(=O)cc(Cl)c23)N(CC(F)(F)F)C1c1cc(C(F)(F)F)cc(C(F)(F)F)c1` (racemic) [Compound 158, (±)-9-Chloro-2-(3,5-bis(trifluoromethyl)phenyl)-1-methyl-3-(2,2,2-trifluoroethyl)-1,2,3,6-tetrahydropyrrolo[3,2-f]quinolin-7-one], for which the Ki was below 5 nM. Still for that read-out and setting: as for `CC1c2c(ccc3[nH]c(=O)cc(Cl)c23)N(CC(F)(F)F)C1c1cccc(C(F)(F)F)c1` (racemic) [Compound 159, (±)-9-Chloro-1-methyl-3-(2,2,2-trifluoroethyl)-2-(3-trifluoromethylphenyl)-1,2,3,6-tetrahydropyrrolo[3,2-f]quinolin-7-one], the figure is above 10 nM. The same measure, in the same setting: as for `CCC1c2c(ccc3[nH]c(=O)cc(Cl)c23)N(CC(F)(F)F)C1c1ccccc1` (racemic) [Compound 160, (±)-9-Chloro-1-ethyl-2-phenyl-3-(2,2,2-trifluoroethyl)-1,2,3,6-tetrahydro-pyrrolo[3,2-f]-quinolin-7-one], the figure is above 10 nM. As for `CC1c2c(ccc3[nH]c(=O)cc(Cl)c23)N(CC(F)(F)F)C1c1cccs1` (racemic) [Compound 161, (±)-9-Chloro-1-methyl-2-(thien-2-yl)-3-(2,2,2-trifluoroethyl)-1,2,3,6-tetrahydro-pyrrolo[3,2-f]quinolin-7-one], the inhibition constant Ki is below 5 nM.

For `CCC1c2c(ccc3[nH]c(=O)cc(Cl)c23)N(CC(F)(F)F)C1c1cccs1` (racemic) [Compound 164, (±)-9-Chloro-1-ethyl-2-(thien-2-yl)-3-(2,2,2-trifluoroethyl)-1,2,3,6-tetrahydro-pyrrolo[3,2-f]-quinolin-7-one], the inhibition constant Ki is below 5 nM. With `CCCC1c2c(ccc3[nH]c(=O)cc(Cl)c23)N(CC(F)(F)F)C1C` (racemic) [Compound 165, (±)-9-Chloro-2-methyl-1-propyl-3-(2,2,2-trifluoroethyl)-1,2,3,6-tetrahydro-pyrrolo[3,2-f]-quinolin-7-one], the inhibition constant Ki was below 5 nM. The same measure, in the same setting: the value for `CCC1C(C)c2c(ccc3[nH]c(=O)cc(Cl)c23)N1CC` (racemic) [Compound 166, (±)-9-Chloro-2,3-diethyl-1-methyl-1,2,3,6-tetrahydro-pyrrolo[3,2-f]quinolin-7-one] was above 10 nM; that for `CC1c2c(ccc3[nH]c(=O)cc(Cl)c23)N(CC(F)(F)C(F)(F)F)C1C` (racemic) [Compound 167, (±)-9-Chloro-1,2-dimethyl-3-(2,2,3,3,3-pentafluoropropyl)-1,2,3,6-tetrahydro-pyrrolo[3,2-f]-quinolin-7-one] was below 5 nM. The same measure, in the same setting: as for `CC1c2c(ccc3[nH]c(=O)cc(Cl)c23)N(CC(F)(F)C(F)(F)C(F)(F)F)C1C` (racemic) [Compound 168, (±)-9-Chloro-1,2-dimethyl-3-(2,2,3,3,4,4,4-heptafluorobutyl)-1,2,3,6-tetrahydro-pyrrolo[3,2-f]quinolin-7-one], the figure is above 10 nM; as for `CC1c2c(ccc3[nH]c(=O)cc(Cl)c23)N(CCC(F)(F)F)C1c1ccccc1` (racemic) [Compound 169, (±)-9-Chloro-1-methyl-2-phenyl-3-(3,3,3-trifluoropropyl)-1,2,3,6-tetrahydro-pyrrolo[3,2-f]quinolin-7-one], below 5 nM; as for `CCC1C(C)c2c(ccc3[nH]c(=O)cc(Cl)c23)N1CCC(F)(F)F` (racemic) [Compound 170, (±)-9-Chloro-2-ethyl-1-methyl-3-(3,3,3-trifluoropropyl)-1,2,3,6-tetrahydro-pyrrolo[3,2-f]quinolin-7-one], below 5 nM.

Turning to `CC1c2c(ccc3[nH]c(=O)cc(Cl)c23)N(CC(F)(F)C(F)(F)F)C1c1ccccc1` (racemic) [Compound 171, (±)-9-Chloro-1-methyl-3-(2,2,3,3,3-pentafluoropropyl)-2-phenyl-1,2,3,6-tetrahydro-pyrrolo[3,2-f]quinolin-7-one], the Ki is above 10 nM.

Take `CC1c2c(ccc3[nH]c(=O)cc(C(F)(F)F)c23)N(CC(F)(F)C(F)(F)F)C1C` (racemic) [Compound 173, (±)-1,2-Dimethyl-3-(2,2,3,3,3-pentafluoropropyl)-9-trifluoromethyl-1,2,3,6-tetrahydro-pyrrolo[3,2-f]quinolin-7-one]: the inhibition constant Ki is below 5 nM.

Staying with this assay, now noted: competition with 1 nM 3H-DHT, transfected COS-1 cells, 3 h at 37° C., Cheng-Prusoff from IC50; read-out: Ki.
For the compound `CC1c2c(ccc3[nH]c(=O)cc(Cl)c23)NC1c1ccccc1` (racemic) [Compound 172, (±)-9-Chloro-1-methyl-2-phenyl-1,2,3,6-tetrahydro-pyrrolo[3,2-f]quinolin-7-one], the inhibition constant Ki is above 10 nM.
